Source: the supplement of paper PMC11451515

Tested on: NOMO1
Assay: cell viability relative to DMSO control; higher = less cytotoxic
Settings: 48 h
Procedure, shortened: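 NOMO1, SEM and P12-Ichikawa leukemia cells spent at least four passages adapting to each medium before use. They were seeded at 500 cells/well (NOMO1, SEM) or 1000 cells/well (P12-Ichikawa) in 5 μl in 1536-well plates and pin-dosed with library compounds in DMSO at 11 threefold steps from 47 μM down to 0.79 nM. After 48 h at 37°C, CellTiter-Glo One luminescence was read. Viability is reported as a percentage of the DMSO wells on each plate, with cell-free wells as background.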

CC(C)C(=O)Oc1ccc(CO)cc1[C@H](CCN(C(C)C)C(C)C)c1ccccc1
cell viability [%]
Settings	HPLM + 10% dialyzed FBS	RPMI 5 mM glucose + 10% FBS	RPMI 5 mM glucose + 10% dialyzed FBS
0.000781 µM	99.1	85.2	78.3
0.00234 µM	104	78.8	79.6
0.00702 µM	85.7	88.8	86.4
0.0211 µM	87	93.3	78.9
0.0632 µM	85.6	82.5	73.8
0.19 µM	91.8	76	79.2
0.569 µM	93.3	80	73.5
1.71 µM	88.9	83.4	80.8
5.12 µM	78.9	85.2	77.4
15.4 µM	81.1	79.1	82.5
46.1 µM	71.7	78.4	79.1
